Experimental data from ChEMBL document CHEMBL1201862, “PubChem BioAssay data set” (2004).
Calls of active or inactive are those of the source.

Legend:
[1] = biological target: cGMP-dependent protein kinase 1 (Homo sapiens, UniProt Q13976); assay type: functional;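 note: value from a kinome panel screen with PRKG1 as the panel member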
[2] = biological target: Phosphorylase b kinase gamma catalytic chain, liver/testis isoform (Homo sapiens, UniProt P15735); assay type: functional;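 note: PHKG2 measured as one member of a kinome-wide kinase panel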
[3] = biological target: 5'-AMP-activated protein kinase catalytic subunit alpha-1 (Homo sapiens, UniProt Q13131); assay type: functional
[4] = biological target: Protein kinase C delta type (Homo sapiens, UniProt Q05655); assay type: functional
[5] = biological target: Serine/threonine-protein kinase PLK4 (Homo sapiens, UniProt O00444); assay type: functional;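 note: PLK4 measured as one member of a kinome-wide kinase profiling panel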
[6] = biological target: Eukaryotic elongation factor 2 kinase (Homo sapiens, UniProt O00418); assay type: functional
[7] = biological target: Mitogen-activated protein kinase 8 (Homo sapiens, UniProt P45983); assay type: functional;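 note: value comes from one member of a kinome-wide kinase profiling panel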
Chain of Mitogen-activated protein kinase 8 (P45983 whole entry): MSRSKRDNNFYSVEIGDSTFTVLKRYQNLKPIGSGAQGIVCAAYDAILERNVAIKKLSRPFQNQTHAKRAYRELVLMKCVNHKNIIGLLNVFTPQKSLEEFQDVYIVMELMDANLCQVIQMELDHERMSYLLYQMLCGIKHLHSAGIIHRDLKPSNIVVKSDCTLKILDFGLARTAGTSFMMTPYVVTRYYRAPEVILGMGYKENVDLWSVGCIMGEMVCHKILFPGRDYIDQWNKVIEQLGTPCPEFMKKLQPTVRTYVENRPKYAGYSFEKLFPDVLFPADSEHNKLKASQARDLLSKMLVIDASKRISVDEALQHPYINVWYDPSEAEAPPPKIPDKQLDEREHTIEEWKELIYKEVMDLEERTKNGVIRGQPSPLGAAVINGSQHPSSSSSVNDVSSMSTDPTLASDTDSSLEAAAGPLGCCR

[8] = biological target: Serine/threonine-protein kinase pim-1 (Homo sapiens, UniProt P11309); assay type: functional
Aurora kinase A = Aurora kinase A (Homo sapiens, UniProt O14965); assay type: functional;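 note: value from the Navigating the Kinome kinase panel profiling, panel entry STK6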
[9] = biological target: Serine/threonine-protein kinase PAK 4 (Homo sapiens, UniProt O96013); assay type: functional;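 note: value obtained within a kinome profiling panel in which PAK4 was one of the panel members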
[10] = biological target: Serine/threonine-protein kinase PAK 1 (Homo sapiens, UniProt Q13153); assay type: functional
[11] = biological target: Fibroblast growth factor receptor 1 (Homo sapiens, UniProt P11362); assay type: functional
LIM domain kinase 1 = LIM domain kinase 1 (Homo sapiens, UniProt P53667); assay: Navigating the Kinome. Panel member name: LIMK1; assay type: functional
[12] = biological target: Serine/threonine-protein kinase TAO1 (Homo sapiens, UniProt Q7L7X3); assay type: functional
[13] = biological target: Tyrosine-protein kinase Blk (Homo sapiens, UniProt P51451); assay type: functional;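 note: obtained as one member of a kinome-wide kinase assay panel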
[14] = biological target: MAP/microtubule affinity-regulating kinase 3 (Homo sapiens, UniProt P27448); assay type: functional;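 note: MARK3 affinity measured as one member of a kinome panel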
[15] = biological target: Mitogen-activated protein kinase kinase kinase 20 (Homo sapiens, UniProt Q9NYL2); assay type: functional
Chain of Mitogen-activated protein kinase kinase kinase 20 (Q9NYL2 whole entry): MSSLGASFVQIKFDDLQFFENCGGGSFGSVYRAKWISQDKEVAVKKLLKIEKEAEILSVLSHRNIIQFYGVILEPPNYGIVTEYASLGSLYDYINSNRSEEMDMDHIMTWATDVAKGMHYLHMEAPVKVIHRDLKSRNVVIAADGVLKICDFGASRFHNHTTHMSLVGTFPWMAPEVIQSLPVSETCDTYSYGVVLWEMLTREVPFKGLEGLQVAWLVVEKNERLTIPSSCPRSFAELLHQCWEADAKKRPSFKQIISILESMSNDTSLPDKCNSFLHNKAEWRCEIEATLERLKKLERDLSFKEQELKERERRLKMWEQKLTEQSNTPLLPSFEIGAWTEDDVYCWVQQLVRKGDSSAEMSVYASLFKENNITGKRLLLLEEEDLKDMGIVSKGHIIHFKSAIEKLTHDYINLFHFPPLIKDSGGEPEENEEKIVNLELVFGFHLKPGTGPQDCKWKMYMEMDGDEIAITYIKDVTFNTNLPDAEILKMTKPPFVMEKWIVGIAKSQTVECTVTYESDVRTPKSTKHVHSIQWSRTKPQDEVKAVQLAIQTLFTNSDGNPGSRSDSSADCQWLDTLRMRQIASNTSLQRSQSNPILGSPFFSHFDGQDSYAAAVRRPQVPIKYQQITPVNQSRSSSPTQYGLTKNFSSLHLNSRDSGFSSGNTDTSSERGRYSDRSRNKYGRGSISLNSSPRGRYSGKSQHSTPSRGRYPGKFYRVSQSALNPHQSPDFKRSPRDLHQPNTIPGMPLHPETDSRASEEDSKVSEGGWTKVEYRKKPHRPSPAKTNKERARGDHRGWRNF

[16] = biological target: Non-receptor tyrosine-protein kinase TYK2 (Homo sapiens, UniProt P29597); assay type: functional
[17] = biological target: Proto-oncogene tyrosine-protein kinase Src (Homo sapiens, UniProt P12931); assay type: functional;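 note: SRC entry within a kinome-wide kinase profiling panel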
[18] = biological target: Hepatocyte growth factor receptor (Homo sapiens, UniProt P08581); assay type: functional;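 note: kinase panel profiling across the kinome, with MET as the panel member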
[19] = biological target: Receptor tyrosine-protein kinase erbB-2 (Homo sapiens, UniProt P04626); assay: Navigating the Kinome. Panel member name: ERBB2; assay type: functional
Ephrin type-A receptor 2 = Ephrin type-A receptor 2 (Homo sapiens, UniProt P29317); assay type: functional;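 note: EPHA2 tested as one member of a kinome-wide kinase panel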
Misshapen-like kinase 1 = Misshapen-like kinase 1 (Homo sapiens, UniProt Q8N4C8); assay type: functional;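 note: kinome panel screen with MINK as the panel member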
Aurora kinase B = Aurora kinase B (Homo sapiens, UniProt Q96GD4); assay type: functional
Chain of Aurora kinase B (Q96GD4 whole entry): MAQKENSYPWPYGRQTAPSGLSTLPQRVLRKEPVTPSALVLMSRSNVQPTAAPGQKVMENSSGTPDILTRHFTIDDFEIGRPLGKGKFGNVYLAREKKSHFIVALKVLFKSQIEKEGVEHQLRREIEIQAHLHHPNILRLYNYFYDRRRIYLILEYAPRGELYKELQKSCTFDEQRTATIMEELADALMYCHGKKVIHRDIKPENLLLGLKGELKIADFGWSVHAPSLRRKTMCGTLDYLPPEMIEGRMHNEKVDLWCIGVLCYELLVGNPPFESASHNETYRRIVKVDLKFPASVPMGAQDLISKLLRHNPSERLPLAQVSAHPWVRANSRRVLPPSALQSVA

[20] = biological target: Interleukin-1 receptor-associated kinase 4 (Homo sapiens, UniProt Q9NWZ3); assay type: functional
Chain of Interleukin-1 receptor-associated kinase 4 (Q9NWZ3 whole entry): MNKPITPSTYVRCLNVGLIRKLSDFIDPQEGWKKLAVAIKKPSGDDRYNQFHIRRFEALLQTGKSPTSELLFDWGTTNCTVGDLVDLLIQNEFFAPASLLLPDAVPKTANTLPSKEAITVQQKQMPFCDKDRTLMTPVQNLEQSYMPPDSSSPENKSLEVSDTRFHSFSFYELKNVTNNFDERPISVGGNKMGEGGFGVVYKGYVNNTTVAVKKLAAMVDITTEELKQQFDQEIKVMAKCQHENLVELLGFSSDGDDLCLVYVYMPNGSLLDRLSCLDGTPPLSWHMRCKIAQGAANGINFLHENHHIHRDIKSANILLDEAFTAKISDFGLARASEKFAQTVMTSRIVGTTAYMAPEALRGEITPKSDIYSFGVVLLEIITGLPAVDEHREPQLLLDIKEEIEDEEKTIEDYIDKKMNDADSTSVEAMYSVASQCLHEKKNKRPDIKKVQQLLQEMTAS

[21] = biological target: Rho-associated protein kinase 1 (Homo sapiens, UniProt Q13464); assay type: functional;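 note: measured within a broad kinome-wide panel profiling many kinases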
Chain of Rho-associated protein kinase 1 (Q13464 whole entry): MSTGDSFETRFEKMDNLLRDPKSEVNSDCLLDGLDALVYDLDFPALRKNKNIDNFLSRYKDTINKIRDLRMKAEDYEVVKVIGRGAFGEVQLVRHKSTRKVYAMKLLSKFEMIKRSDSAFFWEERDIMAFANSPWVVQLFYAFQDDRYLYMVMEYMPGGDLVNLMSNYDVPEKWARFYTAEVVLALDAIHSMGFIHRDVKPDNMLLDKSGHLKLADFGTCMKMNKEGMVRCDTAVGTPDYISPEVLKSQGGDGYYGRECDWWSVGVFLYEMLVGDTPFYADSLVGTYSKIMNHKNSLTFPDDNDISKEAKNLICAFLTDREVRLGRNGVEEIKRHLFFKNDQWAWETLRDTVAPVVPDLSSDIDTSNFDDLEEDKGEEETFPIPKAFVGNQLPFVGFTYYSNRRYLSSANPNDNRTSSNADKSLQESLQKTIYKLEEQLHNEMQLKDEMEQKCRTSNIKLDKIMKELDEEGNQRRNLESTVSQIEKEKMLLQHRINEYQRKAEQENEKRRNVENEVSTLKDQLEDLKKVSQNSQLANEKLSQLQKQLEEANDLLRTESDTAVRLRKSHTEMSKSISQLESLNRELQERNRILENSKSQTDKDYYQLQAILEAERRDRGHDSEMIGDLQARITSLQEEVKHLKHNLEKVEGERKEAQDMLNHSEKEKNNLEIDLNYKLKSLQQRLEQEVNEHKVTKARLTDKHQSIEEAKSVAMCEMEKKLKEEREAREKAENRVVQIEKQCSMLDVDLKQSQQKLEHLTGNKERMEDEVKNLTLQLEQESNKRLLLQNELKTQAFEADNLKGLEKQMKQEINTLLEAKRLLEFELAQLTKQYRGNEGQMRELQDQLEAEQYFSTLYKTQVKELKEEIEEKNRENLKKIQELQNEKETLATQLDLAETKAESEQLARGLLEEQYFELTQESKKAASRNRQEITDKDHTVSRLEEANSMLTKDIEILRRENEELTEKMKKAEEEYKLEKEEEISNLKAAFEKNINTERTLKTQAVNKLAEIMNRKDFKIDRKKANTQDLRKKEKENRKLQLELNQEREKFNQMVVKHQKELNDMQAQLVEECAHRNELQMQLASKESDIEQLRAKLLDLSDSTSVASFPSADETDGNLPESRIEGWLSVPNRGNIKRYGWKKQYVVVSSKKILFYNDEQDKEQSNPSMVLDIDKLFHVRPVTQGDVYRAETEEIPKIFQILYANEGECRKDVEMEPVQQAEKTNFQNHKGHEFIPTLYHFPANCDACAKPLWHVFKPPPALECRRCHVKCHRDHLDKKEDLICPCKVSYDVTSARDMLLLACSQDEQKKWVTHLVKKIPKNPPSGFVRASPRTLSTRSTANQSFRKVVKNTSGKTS

[22] = biological target: Tyrosine-protein kinase Fer (Homo sapiens, UniProt P16591); assay type: functional;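 note: FER tested as one member of a kinome panel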
[23] = biological target: Calcium/calmodulin-dependent protein kinase type 1 (Homo sapiens, UniProt Q14012); assay type: functional
[24] = biological target: Tyrosine-protein kinase Fyn (Homo sapiens, UniProt P06241); assay type: functional
[25] = biological target: Cyclin-dependent kinase 1 (Homo sapiens, UniProt P06493); assay type: functional;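 note: Kinome-wide panel profiling, with the target listed as panel member CDC2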
[26] = biological target: Serine/threonine-protein kinase pim-2 (Homo sapiens, UniProt Q9P1W9); assay type: functional;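 note: value comes from a broad kinase panel profiling study in which PIM2 was one of the panel members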
Chain of Serine/threonine-protein kinase pim-2 (Q9P1W9 whole entry): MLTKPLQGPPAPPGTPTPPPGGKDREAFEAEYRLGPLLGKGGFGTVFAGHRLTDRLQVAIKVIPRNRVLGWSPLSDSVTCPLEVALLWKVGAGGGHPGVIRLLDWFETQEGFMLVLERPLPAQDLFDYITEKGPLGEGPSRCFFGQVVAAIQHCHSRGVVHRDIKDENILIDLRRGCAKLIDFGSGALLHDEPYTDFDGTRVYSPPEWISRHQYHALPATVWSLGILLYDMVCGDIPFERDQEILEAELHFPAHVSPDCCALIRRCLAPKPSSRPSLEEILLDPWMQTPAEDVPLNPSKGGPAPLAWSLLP

[27] = biological target: BDNF/NT-3 growth factors receptor (Homo sapiens, UniProt Q16620); assay type: functional;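 note: NTRK2 measured as one member of a broad kinome-wide kinase profiling panel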
[28] = biological target: Receptor tyrosine-protein kinase erbB-4 (Homo sapiens, UniProt Q15303); assay type: functional;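 note: ERBB4 member of a kinome-wide kinase profiling panel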
Chain of Receptor tyrosine-protein kinase erbB-4 (Q15303 whole entry): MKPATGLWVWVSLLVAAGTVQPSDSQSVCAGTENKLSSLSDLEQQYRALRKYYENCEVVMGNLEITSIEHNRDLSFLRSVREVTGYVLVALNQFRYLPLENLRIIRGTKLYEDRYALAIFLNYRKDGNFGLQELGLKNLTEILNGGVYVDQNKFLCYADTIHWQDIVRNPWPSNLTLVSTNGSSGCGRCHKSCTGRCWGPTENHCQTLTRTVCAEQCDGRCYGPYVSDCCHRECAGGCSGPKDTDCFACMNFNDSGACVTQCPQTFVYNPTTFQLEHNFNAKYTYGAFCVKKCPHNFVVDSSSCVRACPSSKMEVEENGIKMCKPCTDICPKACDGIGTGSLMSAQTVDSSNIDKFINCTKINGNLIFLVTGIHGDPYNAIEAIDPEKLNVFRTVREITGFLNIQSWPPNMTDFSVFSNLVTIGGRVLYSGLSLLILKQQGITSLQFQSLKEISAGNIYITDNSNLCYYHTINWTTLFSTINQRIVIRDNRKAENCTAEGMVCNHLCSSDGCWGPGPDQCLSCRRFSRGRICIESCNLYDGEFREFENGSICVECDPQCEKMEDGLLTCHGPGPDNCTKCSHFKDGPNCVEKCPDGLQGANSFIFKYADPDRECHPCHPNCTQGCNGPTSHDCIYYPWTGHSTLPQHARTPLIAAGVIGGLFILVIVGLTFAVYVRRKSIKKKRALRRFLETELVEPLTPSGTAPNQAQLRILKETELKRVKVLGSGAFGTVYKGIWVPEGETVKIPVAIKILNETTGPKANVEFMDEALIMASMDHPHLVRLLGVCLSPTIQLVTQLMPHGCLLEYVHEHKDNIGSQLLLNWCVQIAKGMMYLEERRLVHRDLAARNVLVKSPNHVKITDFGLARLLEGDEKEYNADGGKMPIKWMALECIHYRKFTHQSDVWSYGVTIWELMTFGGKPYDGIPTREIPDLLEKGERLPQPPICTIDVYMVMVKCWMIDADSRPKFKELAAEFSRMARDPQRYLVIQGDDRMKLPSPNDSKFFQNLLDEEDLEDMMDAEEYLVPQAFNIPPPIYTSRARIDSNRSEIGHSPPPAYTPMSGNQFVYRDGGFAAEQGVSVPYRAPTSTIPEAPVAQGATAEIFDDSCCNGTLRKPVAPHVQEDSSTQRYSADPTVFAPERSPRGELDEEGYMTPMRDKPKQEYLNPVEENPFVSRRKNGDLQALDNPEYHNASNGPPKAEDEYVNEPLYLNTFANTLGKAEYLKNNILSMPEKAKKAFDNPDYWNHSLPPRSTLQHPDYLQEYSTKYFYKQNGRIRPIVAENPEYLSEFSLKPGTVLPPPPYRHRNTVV

[29] = Luminescence Cell-Based Dose Response HTS to Identify Activators of Luciferase Translation or Activity in H4 […] Cells. [Related pubchem assays: 1829 (Project Summary), 1814 (Primary HTS)]; assay type: functional
[30] = viability of PTEN-deleted HCT116 cells – cell-based, HCT116 PTEN knockout, dose response (AID 1047); assay type: functional;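 note: HCT116 colon tumor cells with PTEN knocked out; cells exposed to compound for 60 hours before readout; potency for loss of cell viability measured by luminescence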
[31] = HEK-293T viability loss after treatment – luminescence, T-cell screen hits, cytotoxicity control for TCR NF-kB inhibitor project, dose response (AID 489026); assay type: functional, cell-based;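 note: cells exposed to compound about 14 hours before the viability readout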
Bcl-2-like protein 10 = biological target: T1, Bcl-2-like protein 10 (Homo sapiens, UniProt Q9HD36); assay: Bcl-B/TR3 peptide binding disruption – biochemical, fluorescence polarization, FITC-TR3 peptide, selectivity assay for Bfl-1 inhibitor project, primary screen (AID 748);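 note: fluorescence polarization from a fluorescein-labelled TR3 peptide binding purified Bcl-B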
T1 sequence (Q9HD36 whole entry): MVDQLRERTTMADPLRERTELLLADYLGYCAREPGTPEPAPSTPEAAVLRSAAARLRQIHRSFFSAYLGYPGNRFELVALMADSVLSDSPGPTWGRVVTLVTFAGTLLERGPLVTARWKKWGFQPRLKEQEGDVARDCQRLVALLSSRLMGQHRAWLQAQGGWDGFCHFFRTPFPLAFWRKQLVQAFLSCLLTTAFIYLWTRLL

[32] = biological target: Bifunctional protein GlmU (Mycobacterium tuberculosis, UniProt P9WMN3); assay: Inhibitors of Mycobacterial Glucosamine-1-phosphate acetyl transferase (GlmU). Secondary screen.; parameters: species or system Mycobacterium tuberculosis H37Rv
Cytochrome P450 2C19 = Cytochrome P450 2C19 (Homo sapiens, UniProt P33261); assay: Cytochrome panel assay with activity outcomes. Panel member name: p450-cyp2c19 Compounds with AC50 equal or less than 10 uM are considered active; assay type: functional; conditions: read-out: AC50
[33] = biological target: RNA-editing ligase 1, mitochondrial (Trypanosoma brucei brucei, UniProt P86926); assay: inhibition of trypanosome RNA editing ligase – biochemical, fluorescence, Trypanosoma brucei, dose response (AID 1117295); assay type: functional
Cytochrome P450 3A4 = Cytochrome P450 3A4 (Homo sapiens, UniProt P08684);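 note: CYP3A4 tested as one member of a cytochrome P450 panel screen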
[34] = NIH-3T3 fibroblast cytotoxicity, dose response, cytotoxicity control, cell-based, fluorescence, Alamar Blue, secondary assay (AID 2327); assay type: functional;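 note: NIH-3T3 mouse fibroblasts cultured with fluconazole at 8 µg/mL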

Cc1cccc(NC(=O)Nc2ccc3c(c2)CCc2sc4ncnc(N)c4c2-3)c1
Ki [1]: > 2 µM (inactive) | Ki [2]: > 5.01 µM (inactive) | Ki [3]: 0.398 µM (active) | Ki [4]: 7.94 µM (active) | Ki [5]: 0.251 µM (active) | Ki [6]: > 3.98 µM (inactive) | Ki [7]: > 3.16 µM (inactive) | Ki [8]: 3.98 µM (active) | Ki (Aurora kinase A): 0.0794 µM (active) | Ki [9]: > 5.01 µM (inactive) | Ki [10]: > 10 µM (inactive) | Ki [11]: 2.51 µM (active) | Ki (LIM domain kinase 1): 0.631 µM (active) | Ki [12]: 3.98 µM (active) | Ki [13]: 0.126 µM (active) | Ki [14]: 3.16 µM (active) | Ki [15]: 3.16 µM (active) | Ki [16]: > 2 µM (inactive) | Ki [17]: > 2 µM (inactive) | Ki [18]: > 3.16 µM (inactive) | Ki [19]: > 1.58 µM (inactive) | Ki (Ephrin type-A receptor 2): 0.0316 µM (active) | Ki (Misshapen-like kinase 1): > 7.94 µM (inactive) | Ki (Aurora kinase B): 0.0316 µM (active) | Ki [20]: > 10 µM (inactive) | Ki [21]: 0.794 µM (active) | Ki [22]: > 1.58 µM (inactive) | Ki [23]: > 6.31 µM (inactive) | Ki [24]: > 0.794 µM (inactive) | Ki [25]: > 7.94 µM (inactive) | Ki [26]: 0.501 µM (active) | Ki [27]: 0.2 µM (active) | Ki [28]: > 3.98 µM (inactive)

Cc1ccc(-n2sc3ccccc3c2=O)cc1
EC50 [29]: 23.3 µM (active) | EC50 [30]: 31.1 µM (active)

CCC(=O)NC(c1ccc(C)cc1)c1ccc2cccnc2c1O (configuration not stated)
IC50 [31]: > 80 µM (inactive)

N/C(=N\N=C/c1ccc(-c2ccc(O)c(C(=O)O)c2)o1)N[N+](=O)[O-]
IC50 (Bcl-2-like protein 10): 2.82 µM (active) | IC50 [32]: 28.4 µM (active) | AC50 (Cytochrome P450 2C19): 39.8 µM (inconclusive) | IC50 [33]: 21.2 µM (inactive)

CC(=O)N(/N=C1\Sc2ccccc2C1=O)c1ccccc1C
AC50 (Cytochrome P450 3A4): 31.6 µM (inconclusive)

CCCC(=O)NC(c1ccc(Cl)cc1)c1ccc2cccnc2c1O (configuration not stated)
EC50 [34]: 18 µM (active)
